Counter-ions that a name gives are not always drawn.

This is an account of results in patent US4221909A, “P-Acetamidobenzoic acid salts of 9-(hydroxyalkyl) purines” (Sloan-Kettering Institute for Cancer Research, priority 1978, dated 1980).

Common to all, as to type: cell-based
The test system of one test is influenza virus. As to the kind of experiment: Anti-influenza activity (summary).
Another test deals with Mouse spleen cells. As to the kind of experiment: Mitogen Induced (Con A) Mouse Lymphocyte Proliferation. From the text: The following three assay procedures are used to evaluate the ability of the test substances to modulate the activity of several classes of cells in the immune system. In these systems it is possible to identify both immunopotentiating activity (evidence by an enhancement of the parameter examined) as well as immunosuppressant activity (evidenced by an inhibition of the parameter examined).
1. Mitogen--Induced Mouse Spleen Cell Assay--Mouse spleen cells contain a population of both B and T lymphocytes which can be stimulated by a number of foreign substances (e.g., plant mitogens such as Con A) to proliferate. This enhanced proliferation is an indication of enhanced cell mediated immunity. The method below describes the system used to evaluate test substances as immunopotentiators.
Concanavalin A (Calbiochem, La Jolla, Calif.), Lot #210073, lyophilized in NaCl, was prepared first as a 1% solution and diluted as a 2× concentration for each dilution (0.5, 1.0, 2.5 μg/ml).
Six to eight week old male Balb/c and C3 H inbred mice were obtained from the following sources: Flow Research Animals, Inc., Dublin, Va.; Charles River Breeding Laboratories, Wilmington, Mass.; Laboratory Supply Company, Indianapolis, Ind.; and Lionel Strong Foundation, San Diego, Calif.
Three to five mice were sacrificed by cervical dislocation and the spleens aseptically removed. Pooled spleens were minced and teased with sterile forceps; then strained through a double layer of nylon mesh. The cell suspension was washed once with 15 ml of RPMI 1640 supplemented with 5% fetal calf serum and antibiotics. Cells were cultured at a concentration of 10^6 cells/0.1 ml/well in micro-plates. Cultures were incubated in the presence or absence of mitogen in a humidified atmosphere containing 5% CO2 for 48 hours. The test compound was added to cultures at various concentrations concommitant with mitogen.
Proliferation was assayed by the degree of incorporation of 1.0 μCi of [^3 H] thymidine over an 18 hour incubation period. Cultures were harvested by a MASH unit (Otto Hiller Co., Madison, Wisconsin) and thymidine incorporation was assayed by liquid scintillation spectrometry. Cultures were performed in triplicate and data are expressed as means plus or minus the strandard error of the experimental means. Drug stimulation indices over control values were also calculated and portrayed graphically.

The test system of test [1] is human peripheral blood lymphocytes. In words: Mitogen Induced (PHA) Human Lymphocyte Proliferation.
Test [2] relates to Influenza A USSR/90(H1 N1). As to the kind of experiment: Anti-Influenza Activity (Hemadsorption Assay), Influenza A USSR/90. The method, then:
Upon infection of a monolayer of tissue culture cells by influenza virus, the cell surface is altered so that guinea pig erythrocytes can be adsorbed to the cell surface. The number of foci of adsorbed cells (hemadsorption foci forming units HAFFU) is a quantitative measure of infectivity. The method is as follows.
The monolayers were subcultured in the following manner: The medium was poured off, and the monolayer washed two times with approximately 50 ml per wash of calcium and magnesium free phosphate buffered saline (PBS), (GIBCO #419) at a pH of 7.2. One ml of trypsin-EDTA solution (GIBCO #530L) containing 0.5 g trypsin (1:250) and 2.0 g EDTA/liter of Modified Puck's Saline A was added at 37° C. to each flask and dispersed over the monolayer with gentle shaking. The flasks were then placed in an incubator at 37° C. for approximately 3-5 minutes depending on the time required to dislodge the cells. Occasional shaking was required. Ten ml of planting medium was added to each flask and the cells dispersed by aspirating and expelling the suspension from the pipette. The contents of a series of flasks were pooled and the cells in the suspension were diluted with planting medium to 7-8.5×10^4 cells/ml. The planting medium consisted of the following composition: Minimum Essential Medium Eagles (MEM) with Earle's salts and HEPES buffer (GIBCO #236) supplemented by adding the following substances as specified to 87 ml of MEM:
The following day the medium was removed and replaced with fresh planting medium. The monolayers were used for experimentation when they reached a condition in which they were almost confluent (approximately 3-4 days).
When the Linbro tray HeLa cell cultures were ready for experimentation (see cells), the medium was decanted and 1 ml of maintenance medium (MEM with FCS reduced to 3%) containing the compound being tested at a given concentration was added to 4 replicate cultures within a tray.
A series of different drug concentrations ranging from 2.3 to 150 μg/ml were used. Maintenance medium alone was used for control cultures. After the administration of drug and control medium, 0.1 ml of the diluted viral suspension was added to experimental groups and infected control cultures. Saline alone was added to non-infected control cultures. The Linbro trays were then incubated at 37° C. for 18 hours, after which media in all groups was aspirated. Each culture was washed once with PBS. The saline was aspirated and 0.5 ml of a 0.4% v/v guinea pig red blood cell suspension in PBS was added to each culture well. The cultures remained at room temperature for 30 minutes after which the medium was decanted and culture washed […] with PBS to remove all but the specifically bound red cells. After the third wash, maintenance medium was added to all cultures.
A Howard Micrometer eyepiece (C8385) was inserted within the ocular of a Nikon inverted phase contrast microscope. Each culture was scanned with a 4× low paper objective and direct counts of hemadsorbed red cells were counted using the eyepiece grid as a field marker. Partial or complete fields were counted per experimental group depending on the resulting number and density of hemadsorbed cells in the infected control cultures. Magnification of 60× or 150× were chosen to obtain the best conditions for enumerating the hemadsorbed cells. Field factors were calculated for counting hemadsorption at 60× and 150×. At 60× magnification, total field count was calculated using a multiplication factor of 55.5. At 150× magnification the multiplication factor was 273. The multiplication factors of 55.5 and 273 represent the total number of fields at 60× and 150× magnifications, respectively. The number of fields counted ranged from 3 to 5 per well with 3 to 4 wells per treatment group employed (see raw data tables in results section for number of fields examined). Means and standard errors were calculated and the data was evaluated using student's t-test analysis.

`CCCCCC[C@H]([C@H](C)O)n1cnc2c(N)ncnc21` (relative stereo) [NPT 15426, Erythro-9-(2-Hydroxy-3-Nonyl)-Adenine. HCl]: in the test on influenza virus, the “anti-influenza activity by themselves” value is given as “significant anti-influenza activity”. Also, the “Maximum Percent Change, Mitogen Induced (Con A) Mouse Lymph. Prolif.” value in the test on Mouse spleen cells (1.0-10) was -85%; with Mouse spleen cells (10-100) it was -91%; with Mouse spleen cells (.01-1.0), -50%. The results for the “Maximum Percent Change, Mitogen Induced (PHA) Human Lymph. Prolif.” value in test [1] (1.0-10) and in test [1] (.01-1.0) were -41% and 6%, respectively.

As for `CC(CO)n1cnc2c(=O)[nH]cnc21` (stereo not drawn) [NPT 15444], the “DIP.PAcBA potentiation of Anti-Influenza activity” value (“DIP.PAcBA potentiation” below) with influenza virus is “Yes”. Also, the “% Inhibition of Hemadsorption Foci” value in test [2] (Conc. 10-100 μg/ml, listed as 15444) is listed as 44%; in test [2] (Conc. >100 μg/ml, listed as 15444), 54%.

Regarding `OCCn1cnc2c(S)ncnc21` [NPT 15437], the “DIP.PAcBA potentiation” value with influenza virus is given as “Yes”. Also, the “% Inhibition of Hemadsorption Foci” value was 65% in test [2] (Conc. 10-100 μg/ml) and 65% in test [2] (Conc. >100 μg/ml, listed as 15437).

As for `CC(O)Cn1cnc2c(N)ncnc21` (stereo not drawn) [NPT 15432], the “DIP.PAcBA potentiation” value in the test on influenza virus is on record as “Yes”. Besides, the “% Inhibition of Hemadsorption Foci” value is 48% in test [2] (Conc. 10-100 μg/ml, listed as 15432) and 62% in test [2] (Conc. >100 μg/ml, listed as 15432).
